Literature values as cited in patent US12582632B2, “Inhibition of neurological injuries due to infections via administration of Butanetap and analogs thereof” (priority 2021, dated 2026).

Details: 3 phase 3 clinical studies, failed; cited from earlier work

Compound: CN1CC[C@@]2(C)c3cc(OC(=O)Nc4ccccc4)ccc3N(C)[C@@H]12 [Phenserine, (−)-N-phenylcarbamoyl eseroline]
- side effects in clinical studies: high cholinomimetic side effects
